Reference: the supplement of paper PMC10307832

What was measured:
Experiment in all cases: relative viability (nuclei count vs DMSO), 5 days (fraction); higher = more cells survive
Dinaciclib + Navitoclax = compound: CCc1cnn2c(NCc3ccc[n+]([O-])c3)cc(N3CCCC[C@H]3CCO)nc12 [Dinaciclib] + CC1(C)CCC(c2ccc(Cl)cc2)=C(CN2CCN(c3ccc(C(=O)NS(=O)(=O)c4ccc(N[C@H](CCN5CCOCC5)CSc5ccccc5)c(S(=O)(=O)C(F)(F)F)c4)cc3)CC2)C1 [Navitoclax] (partner 0.5 µM)
Summary of the method: (§1)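 Relative viability is defined as nuclei in treated wells over nuclei in vehicle wells. Duplicate plates were run and medians reported. Lung cancer cell lines in 1536-well plates were dosed by pin tool one day after seeding, with one drug or with a fixed anchor-drug dose plus five library-drug doses (not always all listed) in √10 steps, and nuclei were counted after 5 days.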

Dinaciclib + Foretinib = compound: CCc1cnn2c(NCc3ccc[n+]([O-])c3)cc(N3CCCC[C@H]3CCO)nc12 [Dinaciclib] + COc1cc2c(Oc3ccc(NC(=O)C4(C(=O)Nc5ccc(F)cc5)CC4)cc3F)ccnc2cc1OCCCN1CCOCC1 [Foretinib] (partner 0.25 µM)
Summary of the method: as §1

Dinaciclib + Dasatinib = compound: CCc1cnn2c(NCc3ccc[n+]([O-])c3)cc(N3CCCC[C@H]3CCO)nc12 [Dinaciclib] + Cc1nc(Nc2ncc(C(=O)Nc3c(C)cccc3Cl)s2)cc(N2CCN(CCO)CC2)n1 [Dasatinib] (partner 0.075 µM)
Summary of the method: as §1

Dinaciclib + Decitabine = compound: CCc1cnn2c(NCc3ccc[n+]([O-])c3)cc(N3CCCC[C@H]3CCO)nc12 [Dinaciclib] + Nc1ncn([C@H]2C[C@H](O)[C@@H](CO)O2)c(=O)n1 [Decitabine] (partner 2 µM)
Summary of the method: as §1

Dinaciclib + Olaparib = compound: CCc1cnn2c(NCc3ccc[n+]([O-])c3)cc(N3CCCC[C@H]3CCO)nc12 [Dinaciclib] + O=C(c1cc(Cc2n[nH]c(=O)c3ccccc23)ccc1F)N1CCN(C(=O)C2CC2)CC1 [Olaparib] (partner 8 µM)
Summary of the method: as §1

| Cell Line | relative viability (Dinaciclib + Navitoclax; first compound 0.009487 µM) | relative viability (Dinaciclib + Navitoclax; first compound 0.03 µM) | relative viability (Dinaciclib + Navitoclax; first compound 0.09487 µM) | relative viability (Dinaciclib + Navitoclax; first compound 0.3 µM) | relative viability (Dinaciclib + Foretinib; first compound 0.009487 µM) | relative viability (Dinaciclib + Foretinib; first compound 0.03 µM) | relative viability (Dinaciclib + Foretinib; first compound 0.09487 µM) | relative viability (Dinaciclib + Foretinib; first compound 0.3 µM) | relative viability (Dinaciclib + Dasatinib; first compound 0.009487 µM) | relative viability (Dinaciclib + Dasatinib; first compound 0.03 µM) | relative viability (Dinaciclib + Dasatinib; first compound 0.09487 µM) | relative viability (Dinaciclib + Dasatinib; first compound 0.3 µM) | relative viability (Dinaciclib + Decitabine; first compound 0.009487 µM) | relative viability (Dinaciclib + Decitabine; first compound 0.03 µM) | relative viability (Dinaciclib + Decitabine; first compound 0.09487 µM) | relative viability (Dinaciclib + Decitabine; first compound 0.3 µM) | relative viability (Dinaciclib + Olaparib; first compound 0.009487 µM) | relative viability (Dinaciclib + Olaparib; first compound 0.03 µM) | relative viability (Dinaciclib + Olaparib; first compound 0.09487 µM) | relative viability (Dinaciclib + Olaparib; first compound 0.3 µM) |
| --- | --- | --- | --- | --- | --- | --- | --- | --- | --- | --- | --- | --- | --- | --- | --- | --- | --- | --- | --- | --- |
| NCI-H2085 | 1.14 | 0.201 | 0.154 | 0.172 | 1.16 | 0.259 | 0.194 | 0.241 | 0.223 | 0.184 | 0.218 | 0.229 | 0.589 | 0.404 | 0.217 | 0.236 | 0.838 | 0.321 | 0.257 | 0.263 |
| LCLC-97TM1 | 0.44 | 0.108 | 0.162 | 0.114 | 0.705 | 0.14 | 0.132 | 0.107 | 0.718 | 0.434 | 0.14 | 0.108 | 0.167 | 0.0798 | 0.0518 | 0.0627 | 0.322 | 0.0664 | 0.0584 | 0.0621 |
| NCI-H2126 | 0.868 | 0.607 | 0.221 | 0.197 | 1.08 | 0.803 | 0.194 | 0.312 | 0.54 | 0.187 | 0.212 | 0.187 | 0.524 | 0.393 | 0.187 | 0.176 | 0.89 | 0.449 | 0.186 | 0.169 |
| 201T | 1.31 | 1.19 | 0.416 | 0.32 | 1.19 | 0.174 | 0.171 | 0.15 | 0.621 | 0.428 | 0.265 | 0.245 | 0.943 | 0.767 | 0.168 | 0.209 | 0.991 | 0.34 | 0.225 | 0.223 |
| NCI-H1915 | 0.759 | 0.267 | 0.058 | 0.0578 | 0.731 | 0.193 | 0.124 | 0.173 | 0.301 | 0.149 | 0.121 | 0.123 | 0.253 | 0.24 | 0.131 | 0.12 | 0.202 | 0.108 | 0.112 | 0.0974 |
| BEN | 0.102 | 0.0524 | 0.0833 | 0.0414 | 0.866 | 0.845 | 0.153 | 0.176 | 0.362 | 0.435 | 0.157 | 0.153 | 0.88 | 0.572 | 0.245 | 0.313 | 0.956 | 0.457 | 0.258 | 0.26 |
| NCI-H2347 | 0.779 | 0.167 | 0.143 | 0.143 | 0.824 | 0.248 | 0.298 | 0.261 | 0.344 | 0.246 | 0.173 | 0.171 | 0.673 | 0.383 | 0.212 | 0.232 | 0.523 | 0.241 | 0.216 | 0.209 |
| H3255 | 0.487 | 0.0787 | 0.0605 | 0.0759 | 0.841 | 0.76 | 0.217 | 0.2 | 0.289 | 0.313 | 0.271 | 0.195 | 0.642 | 0.237 | 0.157 | 0.147 | 0.536 | 0.253 | 0.2 | 0.19 |
| NCI-H441 | 0.655 | 0.11 | 0.135 | 0.128 | 0.789 | 0.204 | 0.174 | 0.222 | 0.562 | 0.186 | 0.146 | 0.144 | 0.223 | 0.199 | 0.134 | 0.147 | 0.432 | 0.141 | 0.125 | 0.127 |
